The values below come from article PMC8853664, “Protein visualization and manipulation in Drosophila through the use of epitope tags recognized by nanobodies” (eLife, 2022).

In the assay the test system is REPTOR. The experiment in a line: REPTOR localization in adult enterocytes after rapamycin treatment, detected with nanobody-GFP. It counts as in vivo, Drosophila. Conditions: rapamycin 50 µM in food, 15 hr; adult enterocytes co-expressing VHH05-REPTOR-127D01 and Nb127D01-GFP or NbVHH05-GFP; confocal imaging. The source says: To address whether NanoTagged POIs can be detected in vivo, we generated UAS-VHH05-REPTOR-127D01 flies. A previous study has shown that in S2 cells, the transcription factor REPTOR is enriched in the cytoplasm under normal conditions but translocates into the nucleus upon rapamycin treatment ([Tiebe et al., 2015]). To test whether the changes in REPTOR localization can be detected using the nanobodies, we co-expressed NanoTagged REPTOR along with Nb127D01-GFP or NbVHH05-GFP specifically in adult enterocytes (ECs). In the absence of a NanoTagged POI, Nb127D01-GFP and NbVHH05-GFP were detected in both the cytoplasm and nuclei (Figure 5G1). In contrast, when co-expressed with NanoTagged REPTOR, the nanobody-GFP signals were enriched in the cytoplasm of ECs under normal food conditions (Figure 5H and J). […] Similar changes were absent from ECs that express Nb127D01-GFP or NbVHH05-GFP alone (Figure 5G1).
For rapamycin treatment, rapamycin (LC Laboratories, R-5000) was dissolved in DMSO and mixed into the media when preparing food vials. The rapamycin dose was 50 µM. […]

Take `CO[C@H]1C[C@@H]2CC[C@@H](C)[C@@](O)(O2)C(=O)C(=O)N2CCCC[C@H]2C(=O)O[C@H]([C@H](C)C[C@@H]2CC[C@@H](O)[C@H](OC)C2)CC(=O)[C@H](C)/C=C(\C)[C@@H](O)[C@@H](OC)C(=O)[C@H](C)C[C@H](C)/C=C/C=C/C=C/1C` [rapamycin, Rapamycin]: the REPTOR subcellular localization result is reported as “leads to translocation of REPTOR into the nucleus”.
